Results taken from patent publication US20220315574A1, “Beta-Arrestin-Modulating Compounds and Methods of Using Same” (Duke University, priority 2019, published 2022).
Where a name gives a salt, the structure may show the parent alone.

Columns and labels:
βarr1 = target: T1, βarr1 (Rattus norvegicus, UniProt P29066); experiment: Binding affinity (Kd) by ITC / thermal shift; details: Cmpd-30 by ITC; other three by combination of ITC and thermal shift; read-out: Kd (dissociation constant), βarr1
T1 construct: made in house
T1 sequence (P29066 whole entry): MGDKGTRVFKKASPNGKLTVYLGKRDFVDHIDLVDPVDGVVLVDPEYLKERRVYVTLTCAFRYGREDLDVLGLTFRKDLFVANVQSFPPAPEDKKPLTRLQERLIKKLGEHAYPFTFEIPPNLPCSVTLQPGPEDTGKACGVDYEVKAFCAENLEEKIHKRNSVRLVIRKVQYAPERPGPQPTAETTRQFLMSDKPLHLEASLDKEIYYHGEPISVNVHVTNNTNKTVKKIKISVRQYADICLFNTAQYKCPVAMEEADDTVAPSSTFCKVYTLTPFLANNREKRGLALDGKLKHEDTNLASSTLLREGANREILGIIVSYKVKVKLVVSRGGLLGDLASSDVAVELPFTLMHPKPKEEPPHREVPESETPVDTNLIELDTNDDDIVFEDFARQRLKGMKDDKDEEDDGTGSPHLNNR
Method: A high-throughput differential scanning fluorimetry-based thermal shift screen was developed to identify potential βarr small-molecule modulators present in the collection of structurally diverse, drug-like small-molecule compound library described above. The screen was performed using the StepOnePlus™ Real-Time PCR System (Applied Biosystems, Foster City, Calif.). Melting temperature changes were monitored with the use of a reporter fluorescent probe, SYPRO Orange (Thermo Fisher Scientific). Proteins were buffered in a 20 mM HEPES pH 7.5, 100 mM NaCl solution. All reactions were set up in a 96-well plate at final volumes of 20 μl. […] The temperature was raised with a step of 0.5° C. per 30 second from 25° C. to 99° C. and fluorescence readings were taken at each interval. Melting curves were directly exported from the instrument and were analyzed using Applied Biosystems® Protein Thermal Shift™ Software. Melting temperature (Tm) was calculated by plotting the first derivative of the fluorescence emission as a function of temperature [−dF/dT]. […]
ITC measurements were made using the MicroCal iTC200 system (MicroCal, Malvern, Pa.). […] Data were analyzed using MicroCal Origin software program to obtain association constant (Ka=1/Kd), stoichiometry (N), and thermodynamic parameters such as enthalpy (ΔH) and entropy (ΔS) of binding.

wild-type mouse T cells = assay type: cell-based; details: total T cells and CD4/CD8 subpopulations
Method: Chemotaxis assays were conducted similarly to those previously described Smith, J. S. et al. C-X-C Motif Chemokine Receptor 3 Splice Variants Differentially Activate Beta-Arrestins to Regulate Downstream Signaling Pathways. Mol Pharmacol 92, 136-150, doi:10.1124/mol.117.108522 (2017)). Briefly, mouse leukocytes, obtained by passing cells isolated from the spleen and subjected to erythrocyte lysis through a 70-μm filter, were suspended in RPMI 1640 medium containing 5% FBS. For the assay, 1×10^6 cells in 100 μl of medium were added to the top chamber of a 6.5 mm diameter, 5-μm pore polycarbonate Transwell insert (Costar). Subsequently, cells were treated with βarr small-molecule modulators or vehicle for 30 min, followed by increasing concentrations of CCL19 suspended in 600 μL of the medium in the bottom chamber for 2 hours at 37° C. T cells migrated to the bottom of chamber were recovered, resuspended, washed, stained with a Live/Dead marker (Aqua Dead, ThermoFisher) and antibodies to cell surface markers (CD3, CD4, CD8, and CD45), and fixed with paraformaldehyde. The number of migrated T cells was measured by flow cytometric analysis with a BD LSRII Flow cytometer. […] A 1:10 dilution of input cells was similarly analyzed. Specific T cell migration was calculated by dividing the number of migrated cells by the number of input cells.

SMILES	Kd (βarr1) [nM]	CCL19-induced chemotaxis of T cells (wild-type mouse T cells)
C=C1C(=O)C23[C@H](O)C1CC[C@H]2[C@]12COC3(O)[C@@H](O)[C@@H]1C(C)(C)CC[C@@H]2O [Cmpd-5, (1R,2S,10S,11R,15S,18R)-9,10,15,18-tetrahydroxy-12,12-dimethyl-6-methylidene-17-oxapentacyclo[7.6.2.15,8.01,11.02,8]octadecan-7-one]	233	–
CN(C)c1n/c(=N/Cc2ccco2)ss1 [Cmpd-30, 5-(furan-2-ylmethylimino)-N,N-dimethyl-1,2,4-dithiazol-3-amine;hydrobromide]	9.3	significantly impair
